# Results: patent US7491819B1 (priority 2004, dated 2009)
# Target: T1, HIV-integrase (Human immunodeficiency virus type 1 group M subtype B, UniProt P12497)
# T1 construct: Recombinant integrase (0.26 ng) was incubated with the beads
# Assay: HIV-Integrase Inhibition Activity (SPA bead strand-transfer assay)
# Type: biochemical
# Details: Table 1; read-out: Activity (HIV-integrase inhibition, IC50 class)
# Method in brief: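 Biotin-labelled substrate DNA (5 pmole) bound to streptavidin SPA beads, preloaded with recombinant integrase (0.26 ng) for 90 min at 37° C, then washed. Inhibitors and 0.1 fmol P33-labelled target DNA added; reaction stopped with 10 mM EDTA. Integration read as scintillation CPM.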
row,Compound,IC50
1,"CC1(C)OCCn2c1nc(C(=O)NCc1cccc(F)c1N1CCCCS1(=O)=O)c(O)c2=O [Example 55, Pyrimido[2,1-c][1,4]oxazine-2-carboxamide, N-[[3-fluoro-2-(tetrahydro-1,1-dioxido-2H-1,2-thiazin-2-yl)phenyl]methyl]-4,6,7,9-tetrahydro-3-hydroxy-9,9-dimethyl-4-oxo-]",2 to 100 nM
2,"CNC(=O)c1cc(F)ccc1CNC(=O)c1nc2n(c(=O)c1O)CCOC2C (stereo not drawn) [Example 9, Pyrimido[2,1-c][1,4]oxazine-2-carboxamide, N-[[4-fluoro-2-[(methylamino)carbonyl]phenyl]methyl]-4,6,7,9-tetrahydro-3-hydroxy-9-methyl-4-oxo-]",2 to 100 nM
3,"CC1(C)OCCn2c1nc(C(=O)NCc1ccc(N3CCOCC3)cc1F)c(O)c2=O [Example 24, Pyrimido[2,1-c][1,4]oxazine-2-carboxamide, N-[[2-fluoro-4-(4-morpholinyl)phenyl]methyl]-4,6,7,9-tetrahydro-3-hydroxy-9,9-dimethyl-4-oxo-]",100 to 1000 nM
4,"CNC(=O)COc1cc(F)ccc1CNC(=O)c1nc2n(c(=O)c1O)CCOC2(C)C [Example 97, Pyrimido[2,1-c][1,4]oxazine-2-carboxamide, N-[[4-fluoro-2-[2-(methylamino)-2-oxoethoxy]phenyl]methyl]-4,6,7,9-tetrahydro-3-hydroxy-9,9-dimethyl-4-oxo-]",2 to 100 nM
5,"CSCCC1OCCn2c1nc(C(=O)NCc1ccc(F)cc1)c(O)c2=O (stereo not drawn) [Example 208, Pyrimido[2,1-c][1,4]oxazine-2-carboxamide, N-[(4-fluorophenyl)methyl]-4,6,7,9-tetrahydro-3-hydroxy-9-[2-(methylthio)ethyl]-4-oxo-]",2 to 100 nM
6,"CN(C)C(=O)c1ncn(-c2cc(F)ccc2CNC(=O)c2nc3n(c(=O)c2O)CCOC3(C)C)n1 [Example 63, Pyrimido[2,1-c][1,4]oxazine-2-carboxamide, N-[[2-[3-[(dimethylamino)carbonyl]-1H-1,2,4-triazol-1-yl]-4-fluorophenyl]methyl]-4,6,7,9-tetrahydro-3-hydroxy-9,9-dimethyl-4-oxo-]",2 to 100 nM
7,"CCC1OCCn2c1nc(C(=O)NCc1ccc(F)cc1)c(O)c2=O (stereo not drawn) [Example 10, Pyrimido[2,1-c][1,4]oxazine-2-carboxamide, 9-ethyl-N-[(4-fluorophenyl)methyl]-4,6,7,9-tetrahydro-3-hydroxy-4-oxo-]",2 to 100 nM
8,"CC1(C)OCCn2c1nc(C(=O)NCc1ccc(F)cc1F)c(O)c2=O [Example 35, Pyrimido[2,1-c][1,4]oxazine-2-carboxamide, N-[(2,4-difluorophenyl)methyl]-4,6,7,9-tetrahydro-3-hydroxy-9,9-dimethyl-4-oxo-]",2 to 100 nM
9,"CC1(C)OCCn2c1nc(C(=O)NCc1ccc(-n3cncn3)cc1F)c(O)c2=O [Example 22, Pyrimido[2,1-c][1,4]oxazine-2-carboxamide, N-[[2-fluoro-4-(1H-1,2,4-triazol-1-yl)phenyl]methyl]-4,6,7,9-tetrahydro-3-hydroxy-9,9-dimethyl-4-oxo-]",100 to 1000 nM
10,"CC1(C)OCCn2c1nc(C(=O)NCc1ccc(F)cc1C#CCO)c(O)c2=O [Example 89, Pyrimido[2,1-c][1,4]oxazine-2-carboxamide, N-[[4-fluoro-2-(3-hydroxy-1-propynyl)phenyl]methyl]-4,6,7,9-tetrahydro-3-hydroxy-9,9-dimethyl-4-oxo-]",2 to 100 nM
11,"Cc1ncn(-c2cc(F)ccc2CNC(=O)c2nc3n(c(=O)c2O)CCOC3(C)C)n1 [Example 81, Pyrimido[2,1-c][1,4]oxazine-2-carboxamide, N-[[4-fluoro-2-(3-methyl-1H-1,2,4-triazol-1-yl)phenyl]methyl]-4,6,7,9-tetrahydro-3-hydroxy-9,9-dimethyl-4-oxo-]",2 to 100 nM
12,"CC1(C)OCCn2c1nc(C(=O)NCc1ccc(N3CCOCC3)cc1)c(O)c2=O [Example 253, Pyrimido[2,1-c][1,4]oxazine-2-carboxamide, 4,6,7,9-tetrahydro-3-hydroxy-9,9-dimethyl-N-[[4-(4-morpholinyl)phenyl]methyl]-4-oxo-]",> 1000 nM
13,"CCOc1ccc(-c2ccccc2CNC(=O)c2nc3n(c(=O)c2O)CCOC3(C)C)cn1 [Example 199, Pyrimido[2,1-c][1,4]oxazine-2-carboxamide, N-[[2-(6-ethoxy-3-pyridinyl)phenyl]methyl]-4,6,7,9-tetrahydro-3-hydroxy-9,9-dimethyl-4-oxo-]",2 to 100 nM
14,"Cn1nnc(-c2cc(F)ccc2CNC(=O)c2nc3n(c(=O)c2O)CCOC3(C)C)n1 [Example 106, Pyrimido[2,1-c][1,4]oxazine-2-carboxamide, N-[[4-fluoro-2-(2-methyl-2H-tetrazol-5-yl)phenyl]methyl]-4,6,7,9-tetrahydro-3-hydroxy-9,9-dimethyl-4-oxo-]",2 to 100 nM
15,"CSc1ccccc1CNC(=O)c1nc2n(c(=O)c1O)CCOC2(C)C [Example 112, Pyrimido[2,1-c][1,4]oxazine-2-carboxamide, 4,6,7,9-tetrahydro-3-hydroxy-9,9-dimethyl-N-[[2-(methylthio)phenyl]methyl]-4-oxo-]",2 to 100 nM
16,"CC1(C)OCCn2c1nc(C(=O)NCc1ccc(F)cc1-c1ccc[nH]c1=O)c(O)c2=O [Example 78, Pyrimido[2,1-c][1,4]oxazine-2-carboxamide, N-[[2-(1,2-dihydro-2-oxo-3-pyridinyl)-4-fluorophenyl]methyl]-4,6,7,9-tetrahydro-3-hydroxy-9,9-dimethyl-4-oxo-]",2 to 100 nM
17,"CC1(C)OCCn2c1nc(C(=O)NCc1ccc(N)cc1)c(O)c2=O [Example 256, Pyrimido[2,1-c][1,4]oxazine-2-carboxamide, N-[(4-aminophenyl)methyl]-4,6,7,9-tetrahydro-3-hydroxy-9,9-dimethyl-4-oxo-]",100 to 1000 nM
18,"CC1(C)OCCn2c1nc(C(=O)NCc1ccc3c(c1)OCO3)c(O)c2=O [Example 218, Pyrimido[2,1-c][1,4]oxazine-2-carboxamide, N-(1,3-benzodioxol-5-ylmethyl)-4,6,7,9-tetrahydro-3-hydroxy-9,9-dimethyl-4-oxo-]",2 to 100 nM
19,"Cc1ccc(-c2ccccc2CNC(=O)c2nc3n(c(=O)c2O)CCOC3(C)C)cc1 [Example 162, Pyrimido[2,1-c][1,4]oxazine-2-carboxamide, 4,6,7,9-tetrahydro-3-hydroxy-9,9-dimethyl-N-[(4′-methyl[1,1′-biphenyl]-2-yl)methyl]-4-oxo-]",2 to 100 nM
20,"COc1ccc(CNC(=O)c2nc3n(c(=O)c2O)CCOC3(C)C)c(OC)c1 [Example 232, Pyrimido[2,1-c][1,4]oxazine-2-carboxamide, N-[(2,4-dimethoxyphenyl)methyl]-4,6,7,9-tetrahydro-3-hydroxy-9,9-dimethyl-4-oxo-]",2 to 100 nM
21,"CC1(C)OCCn2c1nc(C(=O)NCc1cccc(F)c1F)c(O)c2=O [Example 238, Pyrimido[2,1-c][1,4]oxazine-2-carboxamide, N-[(2,3-difluorophenyl)methyl]-4,6,7,9-tetrahydro-3-hydroxy-9,9-dimethyl-4-oxo-]",2 to 100 nM
22,"Cc1ccc(F)c(CNC(=O)c2nc3n(c(=O)c2O)CCOC3(C)C)c1F [Example 275, Pyrimido[2,1-c][1,4]oxazine-2-carboxamide, N-[(2,6-difluoro-3-methylphenyl)methyl]-4,6,7,9-tetrahydro-3-hydroxy-9,9-dimethyl-4-oxo-]",2 to 100 nM
23,"Cc1ccc(CNC(=O)c2nc3n(c(=O)c2O)CCOC3(C)C)cc1Cl [Example 231, Pyrimido[2,1-c][1,4]oxazine-2-carboxamide, N-[(3-chloro-4-methylphenyl)methyl]-4,6,7,9-tetrahydro-3-hydroxy-9,9-dimethyl-4-oxo-]",2 to 100 nM
24,"CSc1cc(F)ccc1CNC(=O)c1nc2n(c(=O)c1O)CCOC2(C)C [Example 100, Pyrimido[2,1-c][1,4]oxazine-2-carboxamide, N-[[4-fluoro-2-(methylthio)phenyl]methyl]-4,6,7,9-tetrahydro-3-hydroxy-9,9-dimethyl-4-oxo-]",2 to 100 nM
25,"CC1(C)OCCn2c1nc(C(=O)NCc1cccc3c1OCCCO3)c(O)c2=O [Example 268, Pyrimido[2,1-c][1,4]oxazine-2-carboxamide, N-[(3,4-dihydro-2H-1,5-benzodioxepin-6-yl)methyl]-4,6,7,9-tetrahydro-3-hydroxy-9,9-dimethyl-4-oxo-]",2 to 100 nM
26,"Cn1nnnc1-c1cc(F)ccc1CNC(=O)c1nc2n(c(=O)c1O)CCOC2(C)C [Example 107, Pyrimido[2,1-c][1,4]oxazine-2-carboxamide, N-[[4-fluoro-2-(1-methyl-1H-tetrazol-5-yl)phenyl]methyl]-4,6,7,9-tetrahydro-3-hydroxy-9,9-dimethyl-4-oxo-]",2 to 100 nM
27,"CC1(C)OCCn2c1nc(C(=O)NCc1ccc(F)cc1-n1cnc(C(=O)N3CCOCC3)n1)c(O)c2=O [Example 62, Pyrimido[2,1-c][1,4]oxazine-2-carboxamide, N-[[4-fluoro-2-[3-(4-morpholinylcarbonyl)-1H-1,2,4-triazol-1-yl]phenyl]methyl]-4,6,7,9-tetrahydro-3-hydroxy-9,9-dimethyl-4-oxo-]",2 to 100 nM
28,"COC(=O)c1cccc(CNC(=O)c2nc3n(c(=O)c2O)CCOC3(C)C)c1 [Example 264, Benzoic acid, 3-[[[(4,6,7,9-tetrahydro-3-hydroxy-9,9-dimethyl-4-oxopyrimido[2,1-c][1,4]oxazin-2-yl)carbonyl]amino]methyl]-, methyl ester]",2 to 100 nM
29,"CC1(C)OCCn2c1nc(C(=O)NCc1ccc(F)cc1C(F)(F)F)c(O)c2=O [Example 246, Pyrimido[2,1-c][1,4]oxazine-2-carboxamide, N-[[4-fluoro-2-(trifluoromethyl)phenyl]methyl]-4,6,7,9-tetrahydro-3-hydroxy-9,9-dimethyl-4-oxo-]",2 to 100 nM
30,"CC1(C)OCCn2c1nc(C(=O)NCc1ccc(F)cc1S(C)(=O)=O)c(O)c2=O [Example 101, Pyrimido[2,1-c][1,4]oxazine-2-carboxamide, N-[[4-fluoro-2-(methylsulfonyl)phenyl]methyl]-4,6,7,9-tetrahydro-3-hydroxy-9,9-dimethyl-4-oxo-]",2 to 100 nM
